Broadly, the GI50 is the concentration at which growth is held to half of that of the control.

The values below come from ChEMBL document CHEMBL1201862, “PubChem BioAssay data set” (2004).

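Results reflect a 48-hour exposure of cells in 96-well plates to compound at five concentrations. Here, GI50 denotes the concentration required for 50% inhibition of growth.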 The source made the active and inactive calls. Cut-off read from the data, not from the text of the source: active = GI50 up to about 1.1 µM and inactive = higher. Bounds are passed on as bounds.

Some test systems named below: IGROV-1; KM12; MOLT-4; Malme-3M; U-251; SF-539; SK-MEL-5; SNB-75; ACHN; COLO 205; HCT-15; HCT-116; UO-31; UACC-257; SK-OV-3; SR; NCI-H522; MDA-MB-231; MDA-MB-435; NCI/ADR-RES.
What all share (assay): DTP human tumour cell line panel, 48 h

Consider `CCC(=O)N(O)C(C)(C)C`, for which the GI50 in the experiment on IGROV-1, in the experiment with KM12, in the experiment with MOLT-4, with Malme-3M, with U-251 and with SF-539 was > 100 µM (inactive) throughout. Also, the GI50 was > 100 µM (inactive) with SK-MEL-5; 92.3 µM (inactive) with SNB-75; > 100 µM (inactive) in the experiment on ACHN; > 100 µM (inactive) with COLO 205; > 100 µM in the experiment on HCT-15; > 100 µM (inactive) in the experiment with HCT-116. Further, the GI50 with UO-31, with UACC-257, in the experiment on SK-OV-3, with SR and with NCI-H522 was > 100 µM (inactive) in each case.
In the case of `CNCc1cc(OC)ccc1-c1ccc(OC)c(OC)c1OC`, the GI50 in the experiment with IGROV-1 is > 100 µM (inactive); in the experiment with KM12, > 85.9 µM (inactive); in the experiment with MOLT-4, 99.3 µM (inactive); in the experiment with Malme-3M it was > 100 µM (inactive); with U-251, > 100 µM (inactive); in the experiment with SF-539, > 100 µM (inactive). In addition, the GI50 with SK-MEL-5 is 64.3 µM (inactive); with SNB-75 it was 44.6 µM (inactive); with ACHN it was > 100 µM (inactive); in the experiment with COLO 205 it was > 100 µM (inactive); with HCT-15 it was > 100 µM; in the experiment with HCT-116 it was > 94.6 µM (inactive). Besides, the GI50 was > 88.1 µM (inactive) in the experiment with UO-31; > 100 µM (inactive) in the experiment with UACC-257; > 100 µM (inactive) in the experiment with SK-OV-3; > 100 µM (inactive) in the experiment with SR; > 100 µM (inactive) in the experiment on NCI-H522.
With `CN(C)C(=O)C(NCCO)c1ccccc1` (stereo unspecified), the GI50 with IGROV-1 was 72.6 µM (inactive); with KM12, 85.7 µM (inactive); in the experiment on MOLT-4, 22.4 µM (inactive); in the experiment with U-251, 90.6 µM (inactive); with SF-539, > 100 µM (inactive); with SK-MEL-5, 52.8 µM (inactive). The GI50 in the experiment on MDA-MB-231 is > 100 µM (inactive); in the experiment with SNB-75 it was > 100 µM (inactive); in the experiment with ACHN, > 100 µM (inactive); in the experiment with COLO 205 it was > 100 µM (inactive); in the experiment with HCT-15, > 100 µM; in the experiment on HCT-116, 53.7 µM (inactive). Also, the GI50 in the experiment with UO-31 was > 100 µM (inactive); with UACC-257, 48.3 µM (inactive); with SK-OV-3, > 100 µM (inactive); in the experiment with MDA-MB-435, 79.4 µM (inactive); with NCI-H522 it was > 100 µM (inactive).
As to `COc1cc(C2c3cc4c(cc3OC(N3CCOCC3)C2C)OCO4)ccc1O` (stereo unspecified), the GI50 is 16.4 µM (inactive) with IGROV-1; 7.83 µM (inactive) in the experiment on KM12; 6.25 µM (inactive) with MOLT-4; 10.9 µM (inactive) in the experiment with Malme-3M; 14.5 µM (inactive) with U-251; 11.3 µM (inactive) in the experiment with SF-539. In addition, the GI50 is 9.53 µM (inactive) in the experiment on SK-MEL-5; 7.64 µM (inactive) with SNB-75; 21.2 µM (inactive) in the experiment with ACHN; 25.3 µM (inactive) in the experiment on COLO 205; 4.98 µM with HCT-15; 8.34 µM (inactive) in the experiment with HCT-116. In addition, the GI50 in the experiment on UO-31 was 16 µM (inactive); in the experiment on UACC-257 it was 40.7 µM (inactive); in the experiment with NCI/ADR-RES, 5.96 µM (inactive); in the experiment on SR it was 5.66 µM (inactive); with MDA-MB-435, 2.81 µM (inactive); with NCI-H522, 8.15 µM (inactive).
On to `COc1cccc2c1CCc1ccccc1CC2=O`, for which the GI50 in the experiment on IGROV-1, in the experiment with KM12, with MOLT-4, in the experiment on Malme-3M, in the experiment on U-251 and with SF-539 was > 100 µM (inactive) throughout. Besides, the GI50 was > 100 µM (inactive) in the experiment on SK-MEL-5; > 100 µM (inactive) with SNB-75; > 100 µM (inactive) with ACHN; > 100 µM (inactive) with COLO 205; > 100 µM in the experiment with HCT-15; > 100 µM (inactive) with HCT-116. Besides, the GI50 in the experiment with UO-31, with UACC-257, with SK-OV-3, in the experiment with SR and with NCI-H522 was > 100 µM (inactive) throughout.
Turning to `C[Si](C)(C)/N=C1\N2C(=NC1(C(F)(F)F)C(F)(F)F)Sc1ccccc12`, the GI50 in the experiment with IGROV-1, in the experiment on KM12, in the experiment with MOLT-4, in the experiment on Malme-3M, in the experiment on U-251 and in the experiment on SF-539 was > 50 µM (inactive) in each case. Further, the GI50 is > 50 µM (inactive) with SK-MEL-5; > 50 µM (inactive) in the experiment with SNB-75; > 50 µM (inactive) in the experiment on ACHN; > 50 µM (inactive) in the experiment with COLO 205; > 50 µM with HCT-15; > 50 µM (inactive) in the experiment with HCT-116. Moreover, the GI50 in the experiment with UO-31, with UACC-257, in the experiment with SK-OV-3, in the experiment with SR and with NCI-H522 was > 50 µM (inactive) each time.
As to `N#CC(NCCc1ccccc1)c1ccc(C(C#N)NCCc2ccccc2)cc1` (stereo unspecified), the GI50 in the experiment on IGROV-1 is > 100 µM (inactive); in the experiment with KM12 it was > 100 µM (inactive); in the experiment with MOLT-4, 32.6 µM (inactive); with Malme-3M, > 100 µM (inactive); in the experiment with U-251, 8.17 µM (inactive); in the experiment on SF-539, > 100 µM (inactive). Also, the GI50 in the experiment with SK-MEL-5 is 32.1 µM (inactive); in the experiment on MDA-MB-231, > 100 µM (inactive); in the experiment on ACHN it was > 100 µM (inactive); with COLO 205, 48 µM (inactive); with HCT-15, > 100 µM; in the experiment with HCT-116 it was 28.8 µM (inactive). For the same compound, the GI50 in the experiment with UO-31 is 93.1 µM (inactive); with UACC-257, > 100 µM (inactive); in the experiment with SK-OV-3, > 100 µM (inactive); with NCI/ADR-RES it was 24.3 µM (inactive); in the experiment with MDA-MB-435 it was 33.8 µM (inactive); with NCI-H522 it was > 100 µM (inactive).
`O=C(OCc1ccccc1)c1nc2ccccc2n1S(=O)(=O)c1ccccc1`: the GI50 in the experiment with IGROV-1 was > 100 µM (inactive); in the experiment with KM12 it was > 100 µM (inactive); with MOLT-4 it was > 100 µM (inactive); with Malme-3M, 88.9 µM (inactive); with U-251 it was > 100 µM (inactive); with SF-539 it was > 100 µM (inactive). Moreover, the GI50 with SK-MEL-5 was 80.4 µM (inactive); in the experiment with MDA-MB-231, > 100 µM (inactive); with SNB-75, > 100 µM (inactive); in the experiment on ACHN it was > 100 µM (inactive); in the experiment on COLO 205, 88.7 µM (inactive); in the experiment with HCT-15, > 100 µM. Further, the GI50 in the experiment on HCT-116, in the experiment on UO-31, in the experiment on UACC-257, in the experiment on SK-OV-3, with NCI/ADR-RES and with MDA-MB-435 was > 100 µM (inactive) in each case.
Consider `Clc1ccc2c(Cl)ncnc2c1`, for which the GI50 in the experiment with IGROV-1, with KM12, in the experiment with MOLT-4, in the experiment with Malme-3M, in the experiment with U-251 and with SF-539 was > 100 µM (inactive) in each case. Also, the GI50 in the experiment with SK-MEL-5 is > 100 µM (inactive); with SNB-75, 42.8 µM (inactive); in the experiment with ACHN, > 100 µM (inactive); with COLO 205 it was > 100 µM (inactive); with HCT-15, > 100 µM; with HCT-116 it was > 100 µM (inactive). The GI50 in the experiment with UO-31, in the experiment on UACC-257, with SK-OV-3, in the experiment with SR and in the experiment on NCI-H522 was > 100 µM (inactive) each time.
As for `COc1cccc([C@@H]2C/C(=N\NC(=O)C(=O)N[C@@H](C)c3ccccc3)c3ccccc3N2)c1`, the GI50 in the experiment with KM12 was 10.1 µM (inactive); with MOLT-4, 4.1 µM (inactive); with U-251, > 100 µM (inactive); in the experiment with SF-539, 13.1 µM (inactive); with SK-MEL-5, 14.5 µM (inactive); with MDA-MB-231 it was 35.6 µM (inactive). Besides, the GI50 is 21.3 µM (inactive) in the experiment on SNB-75; 40.6 µM (inactive) with ACHN; > 100 µM (inactive) in the experiment on COLO 205; > 100 µM with HCT-15; > 100 µM (inactive) in the experiment with HCT-116; > 100 µM (inactive) in the experiment on UO-31. In addition, the GI50 with UACC-257 is 82 µM (inactive); in the experiment on SK-OV-3 it was > 100 µM (inactive); in the experiment on NCI/ADR-RES it was 65.2 µM (inactive); in the experiment on MDA-MB-435 it was 4.82 µM (inactive).
Regarding `CC1=Nc2ccccc2C1C(Cc1ccccc1N)c1c(C)[nH]c2ccccc12` (stereo unspecified), the GI50 in the experiment with IGROV-1 is 17.4 µM (inactive); with KM12 it was 16.6 µM (inactive); in the experiment on MOLT-4 it was 20.9 µM (inactive); in the experiment with Malme-3M, 17.3 µM (inactive); with U-251, 16.8 µM (inactive); in the experiment with SF-539, 17.6 µM (inactive). For the same compound, the GI50 with SK-MEL-5 was 14.6 µM (inactive); with SNB-75, 17.5 µM (inactive); with ACHN, 15.2 µM (inactive); with COLO 205 it was 16.6 µM (inactive); in the experiment on HCT-15, 16.4 µM; with HCT-116, 16.9 µM (inactive). Further, the GI50 in the experiment on UO-31 is 14.7 µM (inactive); with UACC-257 it was 17.8 µM (inactive); with SK-OV-3, 24.6 µM (inactive); with SR it was 21.9 µM (inactive); in the experiment with NCI-H522 it was 14 µM (inactive).
Regarding `CCc1cccc(C(C)C)c1NC(=O)C(=O)C(Cc1nc2ccccc2nc1O)C(=O)OC` (stereo unspecified), the GI50 in the experiment on IGROV-1, in the experiment on KM12, in the experiment on MOLT-4, in the experiment with Malme-3M, in the experiment on U-251 and in the experiment on SF-539 was > 100 µM (inactive) each time. The GI50 is > 100 µM (inactive) in the experiment with SK-MEL-5; 65.6 µM (inactive) in the experiment on SNB-75; > 100 µM (inactive) with ACHN; 43.8 µM (inactive) in the experiment on COLO 205; > 100 µM in the experiment on HCT-15; 40.7 µM (inactive) in the experiment on HCT-116. For the same compound, the GI50 in the experiment on UO-31 is > 100 µM (inactive); in the experiment on UACC-257 it was > 100 µM (inactive); in the experiment on SK-OV-3, > 100 µM (inactive); in the experiment with SR, 38.5 µM (inactive); in the experiment with NCI-H522 it was 98.4 µM (inactive).
